± gives the expanded uncertainty stated by the source.
Tests used:
[1] = for mass density / viscosity: 101.33 kPa, Liquid; for mass density: Vibrating tube method
[2] = molar heat capacity at constant pressure; details: 101.33 kPa, Liquid, Small sample (50 mg) DSC

CCCCCCCC[n+]1ccc2ccccc2c1.N#C[S-] [2-octylisoquinolinium thiocyanate]
Details | mass density, [1] [kg/m3] | molar heat capacity at constant pressure, [2] [J/K/mol] | viscosity, [1] [mPa·s]
278.15 K | – | 510 ± 17 | –
283.15 K | – | 513 ± 17 | –
288.15 K | 1067.27 ± 2.2 | 516 ± 17 | –
293.15 K | 1064.44 ± 2.2 | 519 ± 17 | –
298.15 K | 1061.69 ± 2.1 | 522 ± 17 | 2388 ± 36
303.15 K | 1058.82 ± 2.1 | 525 ± 17 | 1612.1 ± 24
308.15 K | 1055.96 ± 2.1 | 528 ± 18 | 1109.5 ± 17
313.15 K | 1053.11 ± 2.1 | 531 ± 18 | 743.87 ± 11
318.15 K | 1050.26 ± 2.1 | 533 ± 18 | 513.78 ± 7.8
323.15 K | 1047.42 ± 2.1 | 535 ± 18 | 365.48 ± 5.5
328.15 K | 1044.57 ± 2.1 | 537 ± 18 | 266.77 ± 4
333.15 K | 1041.72 ± 2.1 | 538 ± 18 | 199.26 ± 3
338.15 K | 1038.94 ± 2 | 540 ± 18 | 152.21 ± 2.3
343.15 K | 1036.2 ± 2 | 540 ± 18 | 118.51 ± 1.8
348.15 K | 1033.47 ± 2 | – | 93.83 ± 1.4

Details | Glass transition temperature [°C]
[1], Glass, DTA | -57.0 ± 3

Source: the NIST ThermoML archive (doi:10.1021/je300853z)
